Results as given in ChEMBL document CHEMBL1141416, “Discovery of a potent and selective prostaglandin D2 receptor antagonist, [(3R)-4-(4-chloro-benzyl)-7-fluoro-5-(methylsulfonyl)-1,2,3,4-tetrahydrocyclopenta[b]indol-3-yl]-acetic acid (MK-0524)” (J Med Chem, 2007).
Values belong to the compound of their own block, whether it stands above or below them.

What was measured:
[1] = Cmax in Sprague-Dawley rat at 10 mg/kg, po; type: ADME, organism-based; design: dose 10 mg/kg, route oral; conditions: in vivo
[2] = Plasma clearance in Sprague-Dawley rat at 10 mg/kg, po and 5 mg/kg, iv; type: ADME, organism-based; design: unit not given here
[3] = Plasma half life in Sprague-Dawley rat at 5 mg/kg, iv; type: ADME, organism-based; design: dose 5 mg/kg, route intravenous
[4] = Bioavailability in Sprague-Dawley rat at 10 mg/kg, po and 5 mg/kg, iv; type: ADME, organism-based; conditions: in vivo
[5] = Volume of distribution in Sprague-Dawley rat at 10 mg/kg, po and 5 mg/kg, iv; type: ADME, organism-based; conditions: in vivo
[6] = Cmax in Sprague-Dawley rat biliary fluid by bile duct cannulation study at 5 mg/kg, iv; type: ADME, organism-based; design: dose 5 mg/kg, route intravenous
[7] = Tmax in Sprague-Dawley rat biliary fluid by bile duct cannulation study at 5 mg/kg, iv; type: ADME, organism-based; design: dose 5 mg/kg, route intravenous
[8] = (§1) Cmax in Sprague-Dawley rat after 6 hrs at 10 mg/kg, po; type: ADME, organism-based; design: dose 10 mg/kg, route oral; conditions: Sprague-Dawley, in vivo
[9] = target: T1, Prostaglandin E2 receptor EP3 subtype (Homo sapiens, UniProt P43115); assay: Binding affinity to human EP3 receptor expressed in HEK293 cells; type: cell-based
T1 sequence (P43115 whole entry): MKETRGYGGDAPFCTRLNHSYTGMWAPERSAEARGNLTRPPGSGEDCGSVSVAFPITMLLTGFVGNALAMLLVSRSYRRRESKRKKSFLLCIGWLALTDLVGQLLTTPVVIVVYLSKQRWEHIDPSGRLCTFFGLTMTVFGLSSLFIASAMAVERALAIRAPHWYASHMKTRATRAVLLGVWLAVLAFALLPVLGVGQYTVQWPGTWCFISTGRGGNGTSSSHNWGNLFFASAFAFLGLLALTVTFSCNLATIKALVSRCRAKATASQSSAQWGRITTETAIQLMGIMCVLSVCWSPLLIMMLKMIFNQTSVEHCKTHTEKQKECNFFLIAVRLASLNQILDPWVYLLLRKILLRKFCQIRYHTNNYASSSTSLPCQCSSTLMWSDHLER

[10] = target: Prostaglandin E2 receptor EP4 subtype (Homo sapiens, UniProt P35408); assay: Binding affinity to human EP4 receptor expressed in HEK293 cells; type: cell-based
Prostaglandin E2 receptor EP4 subtype, sequence (P35408 whole entry): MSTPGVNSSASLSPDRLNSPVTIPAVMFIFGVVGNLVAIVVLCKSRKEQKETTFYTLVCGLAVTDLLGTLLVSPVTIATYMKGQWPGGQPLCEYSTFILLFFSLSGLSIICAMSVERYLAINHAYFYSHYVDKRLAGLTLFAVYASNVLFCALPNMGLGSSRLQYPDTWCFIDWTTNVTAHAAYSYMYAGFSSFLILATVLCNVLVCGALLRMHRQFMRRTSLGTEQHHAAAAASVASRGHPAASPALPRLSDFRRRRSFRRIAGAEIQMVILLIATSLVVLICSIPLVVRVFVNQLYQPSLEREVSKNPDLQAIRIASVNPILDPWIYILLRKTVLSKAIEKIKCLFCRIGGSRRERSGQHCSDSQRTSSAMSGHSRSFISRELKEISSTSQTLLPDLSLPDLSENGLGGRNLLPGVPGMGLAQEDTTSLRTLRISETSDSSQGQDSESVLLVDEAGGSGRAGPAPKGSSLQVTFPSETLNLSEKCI

[11] = target: Prostaglandin E2 receptor EP2 subtype (Homo sapiens, UniProt P43116); assay: Binding affinity to human EP2 receptor expressed in HEK293 cells; type: cell-based
Prostaglandin E2 receptor EP2 subtype, sequence (P43116 whole entry): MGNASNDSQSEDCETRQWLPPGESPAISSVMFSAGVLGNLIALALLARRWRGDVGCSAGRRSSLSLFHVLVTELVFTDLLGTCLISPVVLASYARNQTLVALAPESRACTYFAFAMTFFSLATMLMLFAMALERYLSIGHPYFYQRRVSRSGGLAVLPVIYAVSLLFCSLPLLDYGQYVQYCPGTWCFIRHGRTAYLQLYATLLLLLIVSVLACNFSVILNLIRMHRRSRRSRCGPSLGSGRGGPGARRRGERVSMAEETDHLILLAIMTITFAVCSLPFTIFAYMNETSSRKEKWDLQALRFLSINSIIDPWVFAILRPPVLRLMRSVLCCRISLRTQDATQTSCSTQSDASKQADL

[12] = target: Prostaglandin F2-alpha receptor (Homo sapiens, UniProt P43088); assay: Binding affinity to human FP receptor expressed in HEK293 cells; type: cell-based
Prostaglandin F2-alpha receptor, sequence (P43088 whole entry): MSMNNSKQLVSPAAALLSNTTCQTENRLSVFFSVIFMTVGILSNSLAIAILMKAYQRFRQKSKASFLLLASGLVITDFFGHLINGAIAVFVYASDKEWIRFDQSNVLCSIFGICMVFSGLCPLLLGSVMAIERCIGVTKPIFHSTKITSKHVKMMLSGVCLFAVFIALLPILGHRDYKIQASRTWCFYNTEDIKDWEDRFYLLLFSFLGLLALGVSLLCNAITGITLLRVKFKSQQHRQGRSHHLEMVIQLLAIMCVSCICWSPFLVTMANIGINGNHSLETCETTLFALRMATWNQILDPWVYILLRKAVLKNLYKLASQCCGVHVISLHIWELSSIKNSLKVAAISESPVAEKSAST

[13] = target: Prostacyclin receptor (Homo sapiens, UniProt P43119); assay: Binding affinity to human IP receptor expressed in HEK293 cells; type: cell-based
Prostacyclin receptor, sequence (P43119 whole entry): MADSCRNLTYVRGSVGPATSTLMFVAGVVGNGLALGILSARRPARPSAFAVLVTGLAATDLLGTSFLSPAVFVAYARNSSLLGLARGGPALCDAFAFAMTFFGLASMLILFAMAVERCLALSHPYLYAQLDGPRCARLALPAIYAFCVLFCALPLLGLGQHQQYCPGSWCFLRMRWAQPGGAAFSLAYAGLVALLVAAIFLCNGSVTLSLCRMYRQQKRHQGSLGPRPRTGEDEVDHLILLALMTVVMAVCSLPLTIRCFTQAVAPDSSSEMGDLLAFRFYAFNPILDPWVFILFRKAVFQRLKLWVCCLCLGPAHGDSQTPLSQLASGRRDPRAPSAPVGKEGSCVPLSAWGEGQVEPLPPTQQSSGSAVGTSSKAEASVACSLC

[14] = target: T2, Prostaglandin D2 receptor (Homo sapiens, UniProt Q13258); assay: Activity at human DP receptor in washed platelets assessed as inhibition of PGD2-induced cAMP accumulation; type: functional
T2 sequence (Q13258 whole entry): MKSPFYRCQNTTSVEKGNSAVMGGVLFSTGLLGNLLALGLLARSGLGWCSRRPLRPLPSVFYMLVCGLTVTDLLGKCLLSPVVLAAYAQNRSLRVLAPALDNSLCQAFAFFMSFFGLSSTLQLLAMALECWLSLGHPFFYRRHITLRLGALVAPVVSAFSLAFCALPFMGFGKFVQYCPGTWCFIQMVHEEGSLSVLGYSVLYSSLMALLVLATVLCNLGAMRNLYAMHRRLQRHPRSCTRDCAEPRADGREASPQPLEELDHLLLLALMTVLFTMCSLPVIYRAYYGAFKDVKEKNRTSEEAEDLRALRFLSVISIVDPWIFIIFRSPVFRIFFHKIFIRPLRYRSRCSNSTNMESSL

[15] = target: T2, Prostaglandin D2 receptor; assay: Binding affinity to human DP receptor expressed in HEK293 cells; type: cell-based
[16] = Metabolic stability in rat hepatocytes after 2 hrs at 50 uM; type: ADME, cell-based, Hepatocyte; conditions: read-out: Stability
[17] = target: T3, Thromboxane A2 receptor (Homo sapiens, UniProt P21731); assay: Binding affinity to human TP receptor expressed in HEK293 cells; type: cell-based
T3 sequence (P21731 whole entry): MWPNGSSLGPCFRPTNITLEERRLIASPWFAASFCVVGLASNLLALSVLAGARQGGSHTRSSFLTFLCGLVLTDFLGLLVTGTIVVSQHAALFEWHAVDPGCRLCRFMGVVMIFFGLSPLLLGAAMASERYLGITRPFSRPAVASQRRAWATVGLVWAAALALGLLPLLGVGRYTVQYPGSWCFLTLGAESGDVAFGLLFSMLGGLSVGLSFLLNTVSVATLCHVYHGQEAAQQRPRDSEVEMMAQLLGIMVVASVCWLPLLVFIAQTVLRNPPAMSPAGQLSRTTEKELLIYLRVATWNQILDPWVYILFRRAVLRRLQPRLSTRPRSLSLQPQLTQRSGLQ

[18] = target: T2, Prostaglandin D2 receptor; assay: Activity at human DP receptor in platelet rich plasma assessed as inhibition of PGD2-induced cAMP accumulation; type: functional
[19] = target: T4, Prostaglandin E2 receptor EP1 subtype (Homo sapiens, UniProt P34995); assay: Binding affinity to human EP1 receptor expressed in HEK293 cells; type: cell-based
T4 sequence (P34995 whole entry): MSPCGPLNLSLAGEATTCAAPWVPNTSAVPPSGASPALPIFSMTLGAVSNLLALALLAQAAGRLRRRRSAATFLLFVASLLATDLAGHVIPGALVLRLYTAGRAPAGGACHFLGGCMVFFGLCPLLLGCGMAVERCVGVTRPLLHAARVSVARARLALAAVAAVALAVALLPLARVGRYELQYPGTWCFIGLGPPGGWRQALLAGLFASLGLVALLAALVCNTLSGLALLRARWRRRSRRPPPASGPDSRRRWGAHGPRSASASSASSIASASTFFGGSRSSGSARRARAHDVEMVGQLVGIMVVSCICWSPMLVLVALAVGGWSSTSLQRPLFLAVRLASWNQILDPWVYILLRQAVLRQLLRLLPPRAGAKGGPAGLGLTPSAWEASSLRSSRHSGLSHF

[20] = system: Hepatocyte; assay: Protein binding in human hepatocyte after 2 hrs at 10 uM; type: ADME, cell-based; conditions: hepatocytes
[21] = system: Liver microsomes; assay: Covalent protein binding in human liver microsomes in presence of NADPH after 1 hr at 10 uM; type: ADME, Microsome
[22] = system: Liver microsomes; assay: Protein binding in rat liver microsomes in presence of NADPH after 1 hr at 10 uM; type: ADME, Microsome
[23] = system: Hepatocyte; assay: Covalent protein binding in rat hepatocyte after 2 hrs at 10 uM; type: ADME, cell-based; conditions: hepatocytes
[24] = Plasma concentration in sheep allergic rhinitis model after 30 mins at 0.03 mg/kg, iv
[25] = Plasma concentration in sheep allergic rhinitis model after 30 mins at 0.1 mg/kg, iv
[26] = Activity at human TP receptor in platelet rich plasma assessed as inhibition […]-induced platelet aggregation
[27] = system: Rattus norvegicus; assay: AUC (0-6hrs) in Sprague-Dawley rat at 100 mg/kg, po; type: ADME, organism-based, Plasma; design: time < 6 hr, dose 100 mg/kg, route oral; conditions: in vivo
[28] = system: Rattus norvegicus; assay: AUC (0-6hrs) in Sprague-Dawley rat at 10 mg/kg, po; type: ADME, organism-based, Plasma; design: time < 6 hr, dose 10 mg/kg, route oral; conditions: in vivo
[29] = Cmax in Sprague-Dawley rat after 6 hrs at 100 mg/kg, po; type: ADME, organism-based; design: dose 100 mg/kg, route oral; conditions: in vivo
[30] = Cmax in Sprague-Dawley rat at 100 mg/kg, po; type: ADME, organism-based; design: dose 100 mg/kg, route oral; conditions: in vivo
[31] = system: Rattus norvegicus; assay: as §1; type: ADME, organism-based; design: dose 10 mg/kg, route oral; conditions: in vivo, 6 h

Structure (SMILES): O=C([O-])C[C@H]1CCc2c1n(Cc1ccc(Cl)cc1)c1c(Br)cc(F)cc21.[Na+]
Cmax [1]: 10 µM
clearance [2]: 1.4
half-life [3]: 12 h
bioavailability [4]: 41%
Vdss [5]: 0.4 Not_given
Cmax [6]: 29 µM
Tmax [7]: 1 h
Cmax [8]: 3.7 µM

Structure (SMILES): CS(=O)(=O)c1cc(F)cc2c3c(n(Cc4ccc(Cl)cc4)c12)[C@@H](CC(=O)O)CC3 [LAROPIPRANT]
remaining at 2 h, 50 µM [16]: 32%
concentration at 0.5 h [24]: 0.091 µM
concentration at 0.5 h [25]: 0.67 µM

Structure (SMILES): CC(=O)c1cc(F)cc2c3c(n(Cc4ccc(Cl)cc4)c12)[C@@H](CC(=O)[O-])CC3.[Na+]
Cmax [1]: 21 µM
clearance [2]: 1.9
half-life [3]: 4 h
bioavailability [4]: 52%
Vdss [5]: 0.5 Not_given
Cmax [6]: 81 µM
Tmax [7]: 2.5 h
Cmax [8]: 7.5 µM

Structure (SMILES): CC(=O)c1cc(F)cc2c3c(n(Cc4ccc(Cl)cc4)c12)[C@@H](C[14C](=O)O)CC3
Activity [20]: 16 pmol/mg/h
Activity [21]: 46 pmol/mg/h
Activity [22]: 290 pmol/mg/h
Activity [23]: 45 pmol/mg/h

Structure (SMILES): O=[14C](O)C[C@H]1CCc2c1n(Cc1ccc(Cl)cc1)c1c(Br)cc(F)cc21
Activity [20]: 33 pmol/mg/h
Activity [21]: 33 pmol/mg/h
Activity [22]: 460 pmol/mg/h
Activity [23]: 74 pmol/mg/h

Structure (SMILES): O=C(O)C[C@H]1CCc2c1n(Cc1ccc(Cl)cc1)c1c(Br)cc(F)cc21
Ki [9]: 0.47 µM (antagonist)
Ki [10]: 4.4 µM
Ki [11]: 0.41 µM (antagonist)
Ki [12]: 14 µM
Ki [13]: 0.4 µM (antagonist)
IC50 [14]: 0.00026 µM (antagonist)
Ki [15]: 0.0015 µM (antagonist)
remaining at 2 h, 50 µM [16]: 42%
Ki [17]: 0.00084 µM (antagonist)
IC50 [18]: 0.023 µM (antagonist)
Ki [19]: 4.4 µM

Structure (SMILES): CS(=O)(=O)c1cc(F)cc2c3c(n(Cc4ccc(Cl)cc4)c12)[C@@H](CC(=O)[O-])CC3.[Na+]
Cmax [1]: 39 µM
clearance [2]: 2.4
half-life [3]: 7 h
bioavailability [4]: 79%
Vdss [5]: 0.5 Not_given
Cmax [6]: 103 µM
Tmax [7]: 0.5 h
Cmax [8]: 6.3 µM

Continued, values first:

Ki [9]: 1.2 µM
Ki [10]: > 20 µM
Ki [11]: 0.31 µM (antagonist)
Ki [12]: > 20 µM
Ki [13]: 14 µM
IC50 [14]: 0.00029 µM (antagonist)
Ki [15]: 0.0011 µM (antagonist)
remaining at 2 h, 50 µM [16]: 35%
Ki [17]: 0.014 µM (antagonist)
IC50 [18]: 0.015 µM (antagonist)
Ki [19]: > 9 µM
Structure (SMILES): CC(=O)c1cc(F)cc2c3c(n(Cc4ccc(Cl)cc4)c12)[C@@H](CC(=O)O)CC3

Activity [20]: < 5 pmol/mg/h
Activity [21]: 9 pmol/mg/h
Activity [22]: 13 pmol/mg/h
Activity [23]: 9 pmol/mg/h
Structure (SMILES): [3H]C([3H])([3H])S(=O)(=O)c1cc(C(C)O)c2c(c1)c1c(n2Cc2ccc(Cl)cc2)[C@@H](CC(=O)O)CC1 (stereo not given in full)

Cmax [1]: 0.29 µM
clearance [2]: 50
half-life [3]: < 1 h
bioavailability [4]: 8%
Vdss [5]: 0.8 Not_given
Cmax [6]: 3900 µM
Tmax [7]: 0 h
Cmax [8]: 0.03 µM
Structure (SMILES): CC(O)c1cc(S(C)(=O)=O)cc2c3c(n(Cc4ccc(Cl)cc4)c12)[C@@H](CC(=O)[O-])CC3.[Na+] (stereo not given in full)

Activity [20]: 5 pmol/mg/h
Activity [21]: 18 pmol/mg/h
Activity [22]: 23 pmol/mg/h
Activity [23]: 8 pmol/mg/h
Structure (SMILES): [3H]C([3H])([3H])S(=O)(=O)c1cc(C(C)=O)c2c(c1)c1c(n2Cc2ccc(Cl)cc2)[C@@H](CC(=O)O)CC1

Ki [10]: > 20 µM
remaining at 2 h, 50 µM [16]: 100%
IC50 [26]: 43 µM
Structure (SMILES): CC(O)c1cc(S(C)(=O)=O)cc2c3c(n(Cc4ccc(Cl)cc4)c12)[C@@H](CC(=O)O)CC3 (stereo not given in full)

remaining at 2 h, 50 µM [16]: 93%
IC50 [26]: 8.4 µM
Structure (SMILES): CC(=O)c1cc(S(C)(=O)=O)cc2c3c(n(Cc4ccc(Cl)cc4)c12)[C@@H](CC(=O)O)CC3

AUC [27]: 120 µM·h
Cmax [1]: 21 µM
clearance [2]: 14
AUC [28]: 30 µM·h
half-life [3]: 1.4 h
bioavailability [4]: 128%
Cmax [29]: 7 µM
Vdss [5]: 0.7 Not_given
Cmax [6]: 1100 µM
Tmax [7]: 0 h
Cmax [30]: 31 µM
Cmax [31]: 0.6 µM
Structure (SMILES): CC(=O)c1cc(S(C)(=O)=O)cc2c3c(n(Cc4ccc(Cl)cc4)c12)[C@@H](CC(=O)[O-])CC3.[Na+]
